From patent publication US9815878B2, “Use of PEDF-derived polypeptides for preventing and/or ameliorating skin aging” (MacKay Memorial Hospital, priority 2012, dated 2017)

What was measured:
UVB-induced wrinkles = UVB-induced wrinkles in nude mice, appearance photographed; format: in vivo; settings: 8-week UVB, then ointment plus microneedle twice a week for 2 weeks; FIG. 4
Excerpt: Six-week-old female nude mice (BALB/cAnN.Cg-Foxn1nu/CrlNarl) were irradiated with ultraviolet B (UVB) on the back 5 times a week for an eight-week period using a bank of five UVB lamps (model XL-1000B, Spectrolinker™ apparatus; emission peak: 312 nm), placed about 20 cm above the backs of the animals. During the UVB exposure, the mice were allowed to move freely within the cage. The irradiation intensity represented as the minimal erythe al dose (MED) was set at 1 MED during the first 2 weeks (60 mJ/cm^2), and was progressively elevated to 2 MED (120 mJ/cm^2) in the 3rd-4th week, to 3 MED (180 mJ/cm^2) in the 5th-6th week, and to 4 MED (240 mJ/cm^2) during the 7th-8th weeks of the experiment. After the 8-week UVB exposure, animals developed noticeable wrinkles and were subsequently randomly divided into the following 4 groups, with 3 mice in each group. In the UVB/vehicle, UVB/29-mer, UVB/20-mer, and UVB/18-mer groups, 350 μl of ointment (containing DMSO, 29-mer, 20-mer or 18-mer PEDF) was applied to the dorsal skin and then transdermal delivery was achieved by punching the ointment treated skin with the microneedle patch. Also, mice that were not subjected to UVB radiation were used as control (Normal). The ointment/microneedle treatment was given twice a week for 2 weeks. Mice were intraperitoneally given BrdU and euthanized at 16 hours after the last treatment. Skin sections were stained for vimentin and BrdU. The level of BrdU- and vimentin-double positive cells was expressed as the percentage of BrdU- and vimentin-double positive cells per total vimentin-positive cells (the BrdU/Vimentin Labeling Index).
Formation of wrinkles is closely related to repetitive exposure to UVB irradiation. […] In this working example, we investigated the anti-wrinkle effect of present PEDF peptides in nude (i.e, hairless) mice. Wrinkles were induced by an eight-week UVB irradiation according to the procedure set forth in Example 3.3 above. […]

type I collagen (COL1A1) = test: COL1A1 level in UVB-damaged mouse skin by immunoblot; format: in vivo, nude mice; settings: 8-week UVB, then ointment plus microneedle for 2 weeks; untreated normal group set to 100%
Method: Skin tissues were homogenized in ice-cold lysis buffer containing 20 mM HEPES (pH 7.4), 150 mM NaCl, 1% SDS, 1 mM ethylenediamine tetraacetic acid (EDTA), 5 mM phenylmethanesulfonyl fluoride (PMSF), and 1 mM dithiothreitol (DTT), 1% Triton X-100, with freshly added protease inhibitor cocktail (Roche, Indianapolis, Ind.). Homogenates were then centrifuged at 12,000 g for 30 minutes at 4° C., and supernatants were then collected and stored at −70° C. Protein contents in lysates were determined using the Bradford assay. Whole cell lysates were prepared using the above lysis buffer. Aliquots of the lysates were then resolved on a SDS-PAGE and then electrotransferred to polyvinylidene difluoride (PVDF) membranes (Millipore, Bedford, Mass., USA) and processed for immunoblot analysis.
Antibodies used in the immunoblot study included anti-type I collagen 1A1 antibody (1:1000 dilution), anti-MMP-1 antibody (1:500 dilution) and anti-β-actin antibody (1:10000 dilution). Proteins of interest were detected using the appropriate IgG-HRP secondary antibody and ECL reagent (Amersham, Arlington Heights, Ill., USA). X-ray films were scanned on a Model GS-700 Imaging Densitometer (Bio-Rad Laboratories, Hercules, Calif.) and analyzed using Labworks 4.0 software. For quantification, blots from at least three independent experiments were used.
Six-week-old female nude mice (BALB/cAnN.Cg-Foxn1nu/CrlNarl) were irradiated with ultraviolet B (UVB) on the back 5 times a week for an eight-week period using a bank of five UVB lamps (model XL-1000B, Spectrolinker™ apparatus; emission peak: 312 nm), placed about 20 cm above the backs of the animals. During the UVB exposure, the mice were allowed to move freely within the cage. […] The level of BrdU- and vimentin-double positive cells was expressed as the percentage of BrdU- and vimentin-double positive cells per total vimentin-positive cells (the BrdU/Vimentin Labeling Index). […]

dermal fibroblasts = test: Vimentin-positive fibroblast count in dermis of treated mice; format: in vivo, C57BL/6 mice; settings: ointment plus microneedle (MN), specimens from Example 2
Method: Collagen is the major matrix component of the dermis and forms a tough fiber framework to provide the elastic property of the skin. This working example investigated whether the present PEDF peptides increase dermal collage content. Mice depilated as described in Example 1 were randomly assigned to several experimental groups and treated as follows. For each mouse, one side of the dorsal midline (about 2 cm^2) received 50 μl of ointment (the 29-mer, 20-mer, or DMSO-containing ointment) and a subsequent microneedle treatment; while the other side of the dorsal midline (about 2 cm^2) received 50 μl of the same ointment without the microneedle treatment. The treatment was given twice a week for two weeks, and the skin was left uncovered and harvested 14 days after the first treatment. Skin specimens were stained with Masson's trichrome stain (blue) for dermal collagen; representative images are provided in FIG. 2. The stained collagen area in the skin was quantified as taught above in the “Materials and Methods” section, and the results were normalized with the area of Vehicle/MN. […]
Specimens from Example 2, above, were also stained for the fibroblast marker, vimentin, and the vimentin-positive cells were counted under microscope.

dermal collagen = test: Dermal collagen content, Masson's trichrome stained collagen area in depilated mouse skin; format: in vivo, C57BL/6 mice; settings: for Collagen Area (fold): ointment plus microneedle (MN), twice a week for two weeks, day 14, normalized with Vehicle/MN; for collagen level (Masson's trichrome sections) versus vehicle/CT: ointment without microneedle treatment (CT)
Method: General histology was performed using hematoxylin and eosin (H&E) dye. Deparaffinized skin tissue sections were stained using Masson's Trichrome (Sigma-Aldrich, St. Louis, Mo.) according to the manufacturer's instructions; sections was examined and photographed by a Nikon Eclipse 80i light microscope (original magnification, ×400). For semi-quantitative analysis of collagen area, 10 fields from each slide were randomly selected under the light microscope, and the blue-stained area per entire area of the cross section (mm^2/mm^2) was measured using the Image-Pro Plus 4.5.1 system (Media Cybernetics).
Collagen is the major matrix component of the dermis and forms a tough fiber framework to provide the elastic property of the skin. This working example investigated whether the present PEDF peptides increase dermal collage content. Mice depilated as described in Example 1 were randomly assigned to several experimental groups and treated as follows. For each mouse, one side of the dorsal midline (about 2 cm^2) received 50 μl of ointment (the 29-mer, 20-mer, or DMSO-containing ointment) and a subsequent microneedle treatment; while the other side of the dorsal midline (about 2 cm^2) received 50 μl of the same ointment without the microneedle treatment. The treatment was given twice a week for two weeks, and the skin was left uncovered and harvested 14 days after the first treatment. Skin specimens were stained with Masson's trichrome stain (blue) for dermal collagen; representative images are provided in FIG. 2. The stained collagen area in the skin was quantified as taught above in the “Materials and Methods” section, and the results were normalized with the area of Vehicle/MN. The level of type I collagen (COL1A1) was investigated by the above-described immunoblot analysis, and the results were normalized with the level of the vehicle/CT group.

Substance | wrinkle appearance after 2-week treatment (UVB-induced wrinkles) | COL1A1 Level (%) (type I collagen (COL1A1)) | Vimentin+ Cells per mm^2 (dermal fibroblasts) | Collagen Area (fold) (dermal collagen) | collagen level (Masson's trichrome sections) versus vehicle/CT (dermal collagen)
Ac-SLGAEQRTESIIHRALYYDLISSPDIHGT-NH2 [29-mer] | wrinkle lines were fewer and finer | 91.0 ± 5.0 % | 1688 ± 197 Cells per mm^2 | 1.7 ± 0.14 fold | no significant difference
EQRTESIIHRALYYDLIS [18-mer] | not capable of reducing the wrinkles | 45.0 ± 3.8% | – | – | –
SLGAEQRTESIIHRALYYDL [20-mer, synthetic peptide corresponding to residues 93-112 of human PEDF] | wrinkle lines were fewer and finer | 92.3 ± 9.1 % | 1745 ± 143 Cells per mm^2 | 1.6 ± 0.11 fold | no significant difference
